The compounds below were run against T1, Polyphenol oxidase 1 (White button mushroom, UniProt Q00024) (assay: Tyrosinase Inhibition Assay). Conditions: pH 6.8; 25 °C.
T1 sequence (Q00024 whole entry): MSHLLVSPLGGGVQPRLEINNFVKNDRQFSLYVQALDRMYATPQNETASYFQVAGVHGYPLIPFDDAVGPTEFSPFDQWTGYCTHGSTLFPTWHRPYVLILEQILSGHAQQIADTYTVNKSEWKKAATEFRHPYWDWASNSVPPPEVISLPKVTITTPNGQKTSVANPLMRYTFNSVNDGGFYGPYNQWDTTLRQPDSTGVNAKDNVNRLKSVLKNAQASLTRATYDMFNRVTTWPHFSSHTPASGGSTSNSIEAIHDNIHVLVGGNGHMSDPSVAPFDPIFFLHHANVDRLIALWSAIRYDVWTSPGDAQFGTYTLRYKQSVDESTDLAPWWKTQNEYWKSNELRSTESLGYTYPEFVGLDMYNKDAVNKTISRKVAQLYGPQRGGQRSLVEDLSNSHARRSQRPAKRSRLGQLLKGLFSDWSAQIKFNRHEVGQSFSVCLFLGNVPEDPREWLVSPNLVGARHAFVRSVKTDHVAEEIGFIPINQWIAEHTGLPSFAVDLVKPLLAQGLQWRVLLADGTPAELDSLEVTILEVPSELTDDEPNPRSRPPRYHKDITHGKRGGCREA
Method: In brief, a 10 μL sample was added to an assay mixture containing with 10 μL tyrosinase solution (0.5 mg/mL) and 900 μL phosphate buffer (pH 6.8) to a total volume assay mixture of 920 μL, for 20 min at 25°C. Then 80 μL of L-dopa (1.50 mg/mL) was added to the reaction mixture and the enzyme reaction was monitoredby measuring the change in absorbance at 475 nm of the L-dopa for 1 min.

Row | IC50 | Compound
1 | 17.4 µM | O=C(c1cc(O)c(O)c(O)c1)c1ccc(O)cc1O [Polyhydroxy benzophenone, 6]
2 | 10.5 µM | O=C(c1ccccc1)c1ccc(O)c(O)c1O [phenyl(2,3,4-trihydroxyphenyl)methanone]
3 | 6.4 µM | COc1cc(C(=O)c2ccc(O)c(O)c2O)ccc1O [Polyhydroxy benzophenone, 9]
4 | 98.3 µM | O=C(c1ccc(O)cc1)c1cc(O)c(O)c(O)c1 [Polyhydroxy benzophenone, 14]
5 | > 200 µM | O=C(c1ccc(O)cc1O)c1ccc(O)cc1O [Polyhydroxy benzophenone, 4]
6 | 8.8 µM | O=C(c1ccccc1O)c1ccc(O)c(O)c1O [Polyhydroxy benzophenone, 15]
7 | > 200 µM | O=C(c1cccc(O)c1)c1ccc(O)cc1O [Polyhydroxy benzophenone, 12]
8 | > 100 µM | O=C(c1ccc(O)cc1)c1ccc(O)c(O)c1O [hsp90_136]
9 | > 200 µM | O=C(c1ccccc1)c1cccc(O)c1O [Polyhydroxy benzophenone, 18]
10 | 1.4 µM | O=C(c1cc(O)c(O)c(O)c1)c1ccc(O)c(O)c1O [Polyhydroxy benzophenone, 10]
11 | > 200 µM | COc1cc(C(=O)c2ccc(O)cc2O)ccc1O [Polyhydroxy benzophenone, 5]
12 | > 200 µM | O=C(c1ccc(O)cc1O)c1c(O)cc(O)cc1O [Polyhydroxy benzophenone, 11]
13 | > 200 µM | O=C(c1ccccc1)c1c(O)cc(O)cc1O [Polyhydroxy benzophenone, 16]
14 | 10.1 µM | O=C(c1ccc(O)cc1O)c1ccc(O)c(O)c1O [Polyhydroxy benzophenone, 8]

From BindingDB's records for doi:10.3109/14756366.2010.521745 (Sun Yat-Sen University, 2011)
